Experimental data as given in the METLIN SMRT retention time set (Domingo-Almenara et al. 2019).

Experiment: gradient 5% acetonitrile 3 min, to 50% in 2 min, to 85% in 15 min, held 3 min, 100 µL/min
Conditions: column: Zorbax Extend-C18 2.1 x 50 mm; eluents: water / acetonitrile, 0.1% formic acid
How it was run: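 The mobile phases were water and acetonitrile, each with 0.1% formic acid, pumped at 100 μL/min through a Zorbax Extend-C18 column (2.1 × 50 mm, 1.8 μm). Pure standards were injected as mixtures of ~100 molecules and detected by a quadrupole time-of-flight mass spectrometer in positive and negative ionization mode. Retention time came from computationally picked adduct peaks, each inspected by hand.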

Row | Structure (SMILES) | RP-LC retention time [s]
1 | CCOc1ccc(NC(=O)Cn2c(=O)nc(N3CCC(C)CC3)c3ccccc32)cc1 | 845
2 | CCc1cnc2c(c1OC)c(=O)n(Cc1ccccc1F)c(=O)n2C | 970
3 | COc1ccc(CNC(=O)N2CCN(Cc3nc4cc(-c5ccccc5)ccc4o3)CC2)cc1 | 812
4 | O=c1n(Cc2ccc3c(c2)OCO3)nc2c(-c3nc(-c4ccccc4)no3)cccn12 | 944
5 | O=C(CCn1cnc2cc(-c3noc(/C=C/c4ccccc4)n3)ccc21)N1CCCC1 | 792
6 | COc1ccc(-c2nnc(-c3ccc(Cl)c(S(=O)(=O)N4CCOCC4)c3)o2)cc1OC | 884
7 | CCOc1ccccc1NC(=O)Nc1ccc(CC(=O)NCC(F)(F)F)cc1 | 815
8 | CCc1ccc(Oc2cc(N3CCC(C(=O)NCCc4ccccn4)CC3)ncn2)cc1 | 656
9 | O=C(Cn1nc2c(N3CCc4ccccc4C3)nccn2c1=O)NC1CCCC1 | 793
10 | CNC(=O)c1ccc(-c2nc3cc(NS(=O)(=O)c4ccc5c(c4)CCCC5)ccc3n2C)cc1 | 685
11 | CCOc1ccc(CC(=O)N2CCN(c3cc(-c4cccs4)[nH]n3)CC2)cc1 | 809
12 | O=C(Nc1ccc(F)cc1)C1CCCN(c2nc3ccsc3c(=O)n2Cc2ccc(F)cc2)C1 (stereo not drawn) | 996
13 | COc1ccc(CC(=O)Nc2cccc(-c3ccc4nnc(-c5ccncc5)n4n3)c2)cc1 | 624
14 | O=S(=O)(c1ccc(-c2nnc(C3CCCC3)o2)o1)N1CCCC1 | 933
15 | CCC(C)C(=O)N1CCCN(C2=NS(=O)(=O)C(c3ccc(C)cc3)=C2C)CC1 (stereo not drawn) | 828
16 | N#CCCN1CCN(c2cc(C(=O)O)c3cc(NC(=O)c4cccc(Cl)c4)ccc3n2)CC1 | 614
17 | CCc1ccc(C(=O)Nc2ccc3c(c2)Sc2ncccc2C(=O)N3C)cc1 | 818
18 | COc1ccc(/C=C2\CCCc3ccccc3C2=O)cc1 | 1140
19 | COCc1nncn1C1CCN(S(=O)(=O)c2ccc(C)cc2C)CC1 | 743
20 | COCC(=O)Nc1ccc(SCc2nnc(-c3ccc4c(c3)OCO4)o2)cc1 | 789
21 | CCc1nc(-c2csc(S(=O)(=O)N3CCCC(C(=O)Nc4cccc(C)c4C)C3)c2)no1 (stereo not drawn) | 1060
22 | COc1ccccc1OCC(=O)N1CCc2cc(-c3csc(C)n3)ccc21 | 954

Row | Structure (SMILES) | RP-LC retention time [s]
23 | COc1ccccc1OCC(=O)NCCc1sc(-c2ccc(Cl)cc2)nc1C | 953
24 | O=C(Cc1ccccc1Br)N1CCN(Cc2nncn2C2CCCCC2)CC1 | 642
25 | O=C(Nc1cc(-c2cccs2)no1)C1(c2ccccc2)CC1 | 1050
26 | COc1ccc(Cl)cc1NC(=O)C1CCCN(c2cc(=O)n(C)c(=O)n2C)C1 (stereo not drawn) | 786
27 | CC(=O)NCc1nc(-c2ccc(N3CCSCC3)nc2)no1 | 653
28 | COc1ccc(NC(=O)c2ccc3nc(-c4ccccc4)cn3c2)c(OC)c1 | 722
29 | COc1cc(Nc2nc(-c3nnn(-c4ccc(Cl)cc4)c3C)ns2)cc(OC)c1 | 1100
30 | COc1ccc(C(=O)CN(C(=O)N2CCN(C)CC2)S(=O)(=O)c2ccc(C)cc2)cc1 | 588
31 | CC1=C(c2cccc(Cl)c2)S(=O)(=O)N=C1N1CCCN(C(=O)c2cccs2)CC1 | 860
32 | CCCNC(=O)CCc1cc2cc(OC)ccc2[nH]c1=O | 634
33 | COc1ccccc1NC(=O)NCC(c1cccnc1)c1cn(C)c2ccccc12 (stereo not drawn) | 678
34 | Cc1ccc2c(c1)NC(=O)C(C(=O)NC1CCCCCCC1)O2 (stereo not drawn) | 895
35 | CSc1ccccc1NC(=O)c1cc(=O)c(OCc2ccc(F)cc2)co1 | 859
36 | COc1ccc(C)cc1NC(=O)N1CCc2cn(C)c3cccc(c23)C1 | 822
37 | O=C(O)Cc1sc(-c2ccccc2)nc1-c1ccc(Cl)cc1 | 1140
38 | Cc1ccccc1Nc1c(-c2ccccc2O)nc2ccc(Cl)cn12 | 1040
39 | Cc1c(Cl)cccc1S(=O)(=O)N1CCCC1c1nc(-c2cccc(F)c2)no1 (stereo not drawn) | 1220
40 | O=C(CC1C(=O)NCCN1C(=O)CN1CCN(c2ccccn2)CC1)Nc1ccccc1 (stereo not drawn) | 565
41 | CCc1nnc(NC(=O)C2CCN(C(=O)c3ccc(F)cc3)CC2)s1 | 679
42 | CSc1ccc(-c2nc3cc(C)ccn3c2NC2CCCCC2)cc1 | 896
43 | O=C(O)c1ccccc1N1C(=O)C2C3C=CC(C3)C2C1=O (stereo not drawn) | 621
44 | CC(C)(C)c1noc(-c2cccnc2-n2cnc(C(=O)NC3CCCCC3)c2)n1 | 771

Row | Structure (SMILES) | RP-LC retention time [s]
45 | CCCCN1C(=O)CN(C2CCCCC2)C(=O)C1c1ccc(OC)c(OC)c1 (stereo not drawn) | 877
46 | CC(C)(C)NC(=O)N1CCC(CNC(=O)C(=O)NCCC2=CCCCC2)CC1 | 818
47 | CCC1Oc2ccc(S(=O)(=O)N3CCC(C(=O)NC4CCCCC4)CC3)cc2NC1=O (stereo not drawn) | 838
48 | COc1cccc(NS(=O)(=O)c2cc(-c3cc(C(F)(F)F)on3)sc2C)c1 | 1110
49 | CCCCNC(=O)C(CC)n1nc(C)c2nn(-c3ccccc3)c(C)c2c1=O (stereo not drawn) | 934
50 | CCN(CC)C(=O)c1ccc2c(c1)N(CC(=O)Nc1cc(C)cc(C)c1)C(=O)CS2 | 858
51 | CC(C)NC(=O)c1cc(C(C)(C)C)[nH]n1 | 710
52 | CCc1nc2cc(-c3noc(/C=C/c4ccc(C)o4)n3)ccc2o1 | 1180
53 | Cc1ccc(C(=O)N2CCc3nc(-c4ccc(F)cc4)ncc3C2)cc1C | 901
54 | O=C(NCc1ccccc1C(F)(F)F)C1CCN(c2cnc3nccnc3c2)CC1 | 747
55 | O=C(Nc1ccc(OC(F)(F)F)cc1)C1CCN(S(=O)(=O)c2ccc3[nH]c(=O)ccc3c2)CC1 | 831
56 | CC1=C(c2ccccc2)S(=O)(=O)N=C1N1CCCN(C(=O)c2cc(C)ccc2C)CC1 | 870
57 | Cc1ccc(CNC(=O)C2(C)CCCN(C(=O)NCCC(C)C)C2)cc1 (stereo not drawn) | 910
58 | Cc1nc(-c2ccc(-c3noc(CNC(=O)Cc4ccccc4)n3)cc2)cs1 | 903
59 | Cc1ccc(CN2CCC3(CC2)CC(CC(=O)N2CCOCC2)CCO3)s1 (stereo not drawn) | 595
60 | COCCCn1c(C)c(C)c(S(=O)(=O)c2ccccc2)c1NC(=O)C1CCCO1 (stereo not drawn) | 824
61 | CC1(C(=O)NC2CCCC2)Cn2cnc(C(=O)NCc3ccccc3F)c2C(=O)N1C1CC1 (stereo not drawn) | 778
62 | O=C(c1ccccn1)N1CCC2(CC1)NC(=O)N(Cc1ccccc1Cl)C2=O | 716
63 | COc1cccc(S(=O)(=O)N2CCC(c3noc(-c4cccc(F)c4)n3)CC2)c1 | 1110
64 | Cc1cc(C)c(NC(=O)COc2cc(C)nc(N3CCN(c4ccccc4)CC3)n2)c(C)c1 | 942
65 | CCOc1ccc2nc(C(=O)NCc3ccc(OC(C)C)cc3)cn2n1 | 940
66 | CCCCNC(=O)Cn1cccc(-c2nc(-c3ccc(F)cc3)no2)c1=O | 790

Row | Structure (SMILES) | RP-LC retention time [s]
67 | O=c1c2cc3c(cc2nc(SCc2nc(-c4cccc(F)c4)no2)n1-c1ccc(F)cc1)OCO3 | 1170
68 | COc1ccc(CC(=O)N2CCCC(c3nnc(-c4ccccc4F)s3)C2)cc1OC (stereo not drawn) | 794
69 | CS(=O)(=O)NCCc1ccc(CC2CCN(S(=O)(=O)c3cccnc3)CC2)cc1 | 814
70 | Cc1ccc(-n2nc(N3CCCC(C(=O)NCc4ccc(OC(C)C)cc4)C3)ccc2=O)cc1Cl (stereo not drawn) | 999
71 | Cn1c(C(=O)NC2CCCCCC2)cc2sc(Cl)cc21 | 1200
72 | O=C(NCC1CCN(Cc2ccco2)CC1)C(=O)Nc1ccc(F)c(Cl)c1 | 584
73 | O=C(NCC1CCCO1)c1ccc2ncnc(N3CCCC3)c2c1 (stereo not drawn) | 575
74 | O=C(NCC1CCCO1)C1CCN(c2nccnc2Sc2ccccc2)CC1 (stereo not drawn) | 796
75 | Cc1ccc(C)c(NC(=O)Cn2nc3c(N4CCCCCC4)nccn3c2=O)c1 | 730
76 | O=C1COc2ccc(Cl)cc2N1Cc1nc(-c2ccc(F)cc2)no1 | 1070
77 | Cc1ccc(-c2cc(C(F)(F)F)on2)cc1S(=O)(=O)N1CCCCC1C (stereo not drawn) | 852
78 | COC(=O)c1ccc2c(=O)n(-c3ccc(C)c(C)c3)c(N3CCN(c4ccccn4)CC3)nc2c1 | 756
79 | Cc1ccccc1N1CC(C(=O)N(C)C)CC1=O (stereo not drawn) | 628
80 | COc1ccc(S(=O)(=O)NC(CC(=O)O)c2ccccc2)cc1 (stereo not drawn) | 674
81 | COc1ccc2c(c1)CC(C(=O)N1CCN(C(=O)c3ccco3)CC1)CO2 (stereo not drawn) | 725
82 | COc1ccc(C2C(C(=O)N3CCCC3)c3cc(OC)c(OC)cc3C(=O)N2C)cc1OC (stereo not drawn) | 660
83 | COc1cccc(CCC(=O)N2CCN(c3nc(CN4CCC(C)CC4)cs3)CC2)c1 | 681
84 | CCOC(=O)c1c(C)[nH]c(C(=O)CC(=O)OC)c1C | 696
85 | O=C(N[C@@H]1CN(Cc2ccc3c(c2)CCO3)C[C@H]1CO)C1CC1 | 632
86 | CCc1ccc(C2=Nc3cccnc3N(CC(=O)Nc3ccc4c(c3)OCCO4)C(=O)C2)cc1 | 1020
87 | O=C(Nc1ccc2nc(N3CCCN(c4ncccn4)CC3)cc(C(=O)O)c2c1)c1ccc(F)cc1 | 616
88 | CC1CCC(N2CC(=O)N(CCN3CCOCC3)C(c3cccnc3)C2=O)CC1 (stereo not drawn) | 548
